From EP3095787A1, “[…] ACTIVE COMPOUNDS AS DAG-LIPASE INHIBITORS” (Universiteit Leiden, priority 2015, dated 2016) come the findings set out here.

This test relates to serine hydrolases. Kind of test: Chemoproteomics with THL-biotin (MB108) and FP-biotin in mouse brain membrane proteome: other serine hydrolases. The settings on record: 10 µM, 30 min. The test is classed as biochemical. As for the experimental part:
Since, the human serine hydrolase family contains approximately 200 family members, the selectivity in brain proteome was examined in a broader and more detailed manner. […] Mouse brain proteome (500 μL, 2.0 mg/mL) membrane or soluble fraction was incubated with vehicle (DMSO) or inhibitor (10 μM) in DMSO for 30 minutes at rt. The proteome was labeled with MB108 (2.5 μM, 30 minutes, rt) or FP-Biotin (5 μM, 30 minutes, 37 °C). Subsequently the labeling reaction was quenched and excess probe was removed by chloroform methanol precipitation. Precipitated proteome was suspended in 500 μL 6M Urea/25 mM ammonium bicarbonate and allowed to incubate for 15 minutes. 5 μL (1 M DTT) was added and the mixture was heated to 65 °C for 15 minutes. […] The sample was diluted with 6 mL PBS. 100 μL of 50% slurry of Avidin-Agarose from egg white (Sigma-Aldrich) was washed with PBS and added to the proteome sample. The beads were incubated with the proteome > 2h. The beads were isolated by centrifugation and washed with 0.5% (wt/vol) SDS and PBS (3x). […] Tryptic peptides were analyzed on a Surveyor nanoLC system (Thermo) hyphenated to a LTQ-Orbitrap mass spectrometer (Thermo). […] Fragmented precursor ions that were measured twice within 10 s were dynamically excluded for 60 s and ions with z < 2 or unassigned were not analyzed. […]

Structures are written as SMILES. “Also recorded” adds a separate entry of the source.

Regarding `Cc1ccc(-c2cnc3nc(C(=O)CCCCCc4ccccc4)oc3c2)cc1` [Compound 25, 1-(6-(p-Tolyl)oxazolo[4,5-b]pyridin-2-yl)-6-phenylhexan-1-one], the “labeling of other serine hydrolases” value is listed as “no other targets were detected; also recorded: not of any other serine hydrolase identified”.
